Source: patent publication US20150045610A1, “METHOD OF MODIFYING SPERMATOGENESIS, SPERMIOGENESIS AND/OR FERTILITY IN MAMMALS” (Monell Chemical Senses Center, priority 2012, published 2015)

Target: T1, humanized mhT1R3 (Homo sapiens, UniProt Q7RTX0, A109T/A120V/A176D/A197V/A198V/A228S/A231N/A248T/A280V/A282S/A302S/A412V/A417V/A46T/A537T/C375D/D124S/D249S/D250G/D364H/D419E/D470T/D491G/D88A/DEL352-352/DEL488-489/E172D/E199T/E203N/E217D/E356N/E45S/E481Q/E505D/E525K/E545Q/F540P/F555L/G168S/G205S/G311T/G314N/G355L/G360D/G414H/G438R/G439D/G463S/G50T/G542N/H261R/H278R/H281Y/H332P/I485M/I536F/INS376MLQNLSSG/K32Q/K339E/K422L/K494V/K86G/L173R/L245Q/L272V/L29F/L354S/L385Q/L433M/L458M/L483S/L71F/L74M/M151L/M315I/M318V/M31A/N285S/N386L/N532H/N68L/P112S/P246H/P335S/P416H/P420H/P441T/P60I/Q221E/Q257L/Q317R/Q330L/Q336H/Q359L/Q372R/Q418S/Q504K/Q531K/R123Q/R247D/R252Q/R291G/R30K/R357A/R443Q/R467V/R473T/R479Q/R482Q/R486Y/R498Q/R52N/R550K/R553A/R556P/R560K/R56Q/S251Q/S267K/S289H/S290H/S392A/S446A/S447E/S464P/S477T/S490P/S53Q/S559P/S58N/S67P/T195Q/T346A/T377L/T390I/T434S/T480L/T63N/V152I/V277A/V366M/V36I/V381L/V393T/V437A/V465T/V61P/W72L)
T1 construct: the extracellular domain is of mouse origin and the transmembrane and intracellular domains of human origin; mouse T1R3 extracellular domain (fusion partner replacing the human extracellular domain); expressed in transfected cells; host or cells: transgenic mice (Line 7, 9, 7c) on T1R3-null background; transgene under 13 kb T1R3 promoter, followed by IRES-eGFP
T1 sequence (Q7RTX0 with tags, fused parts or gaps L29F/R30K/M31A/K32Q/V36I/E45S/A46T/G50T/R52N/S53Q/R56Q/S58N/P60I/V61P/T63N/S67P/N68L/L71F/W72L/L74M/K86G/D88A/A109T/P112S/A120V/R123Q/D124S/M151L/V152I/G168S/E172D/L173R/A176D/T195Q/A197V/A198V/E199T/E203N/G205S/E217D/Q221E/A228S/A231N/L245Q/P246H/R247D/A248T/D249S/D250G/S251Q/R252Q/Q257L/H261R/S267K/L272V/V277A/H278R/A280V/H281Y/A282S/N285S/S289H/S290H/R291G/A302S/G311T/G314N/M315I/Q317R/M318V/Q330L/H332P/P335S/Q336H/K339E/T346A/DEL352-352/L354S/G355L/E356N/R357A/Q359L/G360D/D364H/V366M/Q372R/C375D/INS376MLQNLSSG/T377L/V381L/L385Q/N386L/T390I/S392A/V393T/A412V/G414H/P416H/A417V/Q418S/D419E/P420H/K422L/L433M/T434S/V437A/G438R/G439D/P441T/R443Q/S446A/S447E/L458M/G463S/S464P/V465T/R467V/D470T/R473T/S477T/R479Q/T480L/E481Q/R482Q/L483S/I485M/R486Y/DEL488-489/S490P/D491G/K494V/R498Q/Q504K/E505D/E525K/Q531K/N532H/I536F/A537T/F540P/G542N/E545Q/R550K/R553A/F555L/R556P/S559P/R560K limits assumed): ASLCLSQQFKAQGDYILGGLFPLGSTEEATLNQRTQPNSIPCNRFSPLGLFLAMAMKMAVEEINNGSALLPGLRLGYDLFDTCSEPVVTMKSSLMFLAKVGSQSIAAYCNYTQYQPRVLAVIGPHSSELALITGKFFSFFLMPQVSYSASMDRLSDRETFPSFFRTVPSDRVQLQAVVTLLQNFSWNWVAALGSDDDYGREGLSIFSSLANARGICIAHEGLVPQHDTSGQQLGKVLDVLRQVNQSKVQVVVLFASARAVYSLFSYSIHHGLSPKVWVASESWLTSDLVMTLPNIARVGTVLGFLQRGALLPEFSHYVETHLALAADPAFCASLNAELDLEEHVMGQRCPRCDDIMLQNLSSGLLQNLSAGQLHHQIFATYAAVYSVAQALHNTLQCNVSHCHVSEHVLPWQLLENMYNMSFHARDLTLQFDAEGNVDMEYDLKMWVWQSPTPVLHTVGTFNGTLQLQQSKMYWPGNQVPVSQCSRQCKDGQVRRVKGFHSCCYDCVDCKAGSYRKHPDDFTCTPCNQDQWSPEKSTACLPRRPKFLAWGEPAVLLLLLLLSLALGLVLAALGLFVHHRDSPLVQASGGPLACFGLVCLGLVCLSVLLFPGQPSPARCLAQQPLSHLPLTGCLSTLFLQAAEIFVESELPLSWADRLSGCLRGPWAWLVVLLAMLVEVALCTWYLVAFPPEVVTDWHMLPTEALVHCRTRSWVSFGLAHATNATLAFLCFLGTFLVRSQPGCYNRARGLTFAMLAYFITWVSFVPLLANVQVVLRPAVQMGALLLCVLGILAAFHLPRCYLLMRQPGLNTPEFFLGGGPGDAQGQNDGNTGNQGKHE
T1 sequence (Q925I4 20-843 partner): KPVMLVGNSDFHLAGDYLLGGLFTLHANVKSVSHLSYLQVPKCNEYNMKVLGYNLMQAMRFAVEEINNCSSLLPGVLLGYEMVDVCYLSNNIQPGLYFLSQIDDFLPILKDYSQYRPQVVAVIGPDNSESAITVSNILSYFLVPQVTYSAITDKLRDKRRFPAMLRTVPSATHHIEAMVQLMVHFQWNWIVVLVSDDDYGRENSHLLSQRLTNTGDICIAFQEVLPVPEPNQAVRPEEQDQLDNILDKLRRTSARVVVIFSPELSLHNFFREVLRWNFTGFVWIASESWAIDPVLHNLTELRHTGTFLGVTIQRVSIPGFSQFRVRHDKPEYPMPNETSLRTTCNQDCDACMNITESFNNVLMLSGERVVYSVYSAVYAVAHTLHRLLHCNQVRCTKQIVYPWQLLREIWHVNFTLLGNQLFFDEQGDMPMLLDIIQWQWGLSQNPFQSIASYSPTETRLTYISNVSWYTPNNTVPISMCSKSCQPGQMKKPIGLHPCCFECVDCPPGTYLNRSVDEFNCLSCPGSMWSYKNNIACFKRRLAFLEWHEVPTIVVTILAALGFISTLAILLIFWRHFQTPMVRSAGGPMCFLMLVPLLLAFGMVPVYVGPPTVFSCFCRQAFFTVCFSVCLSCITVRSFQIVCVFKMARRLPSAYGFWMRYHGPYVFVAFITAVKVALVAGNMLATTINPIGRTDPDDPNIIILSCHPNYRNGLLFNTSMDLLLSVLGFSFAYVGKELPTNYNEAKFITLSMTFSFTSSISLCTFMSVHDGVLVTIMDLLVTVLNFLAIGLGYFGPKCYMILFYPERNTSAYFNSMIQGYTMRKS
Experiment: sweet taste preference of transgenic mice expressing humanized T1R3
Type: in vivo, mouse
Experimental: We used the chimeric mhT1R3 receptor to produce conventional transgenic animals. The DNA construct was injected into a genetically engineered mouse line that lacks endogenous T1R3 (T1R3KO or T1R3-null). […] We call these mice Line7.
For further crosses, we used the line 7 that has fewer copies of the transgene.
Such compounds may be produced normally in organs (e.g. in testis) or chemically synthesized.

With `CC(C)(Oc1ccc(Cl)cc1)C(=O)O` [clofibric acid] the “sweet preference of Line 7 mice” value (1 mM clofibric acid) was “blocked” and the “sweet responses of the transgenic animals” value (lines 7, 9, 7c expressing humanized receptor) was “completely blocked”.
